IC50 data for 25 molecules are collected here from patent US20220041588A1, “SUBSTITUTED IMIDAZO[1,2-A]PYRIDINE AND [1,2,4]TRIAZOLO[1,5-A]PYRIDINE COMPOUNDS AS RET KINASE INHIBITORS” (FOCHON PHARMACEUTICALS, LTD., priority 2018, published 2022).

This experiment relates to TT (RET C634W) cells. Nature of the experiment: Cell proliferation assay (MTS), TT cells. The class given is cell-based. The note with it: Homo sapiens, TT, 72 h, 72 h incubation, MTS readout. As for the experimental part: MTS testing kit was purchased from Promega. The RPMI-1640, F12, F12K, Fetal bovine serum and Penicillin-Streptomycin were purchased from BI. Glutamine and Dimethyl sulfoxide (DMSO) were purchased from Sigma. TT cells were cultured in F12K supplemented with 10% FBS and LC-2/ad cells were cultured in HamF12: RPMI1640 (1:1) supplemented with 10% FBS and 2 mM Glutamine.
To investigate whether a compound is able to inhibit the activity of RET fusion and/or mutation in cells, a mechanism-based assay using TT (RET C634W) and LC-2/ad (CCDCl6-RET) cell lines was developed. In this assay, the inhibition of RET fusion and/or mutation was reflected by the inhibition of cell proliferation of TT and LC-2/ad cells. Cells were plated into 96-well plates at the optimized cell density (TT: 5000 cells/well; LC-2/ad: 5000 cells/well). Plates were incubated at 37° C., with 5% CO2 for 24 h. Compounds were serially diluted and added to the plates with the final concentrations as 10000, 3333.3, 1111.1, […], 123.5, 41.2, 13.7, 4.6 and 1.5 nM. Plates were incubated at 37° C., with 5% CO2 for 72 h. An aliquot of 20 μL MTS/100 μL medium mixture solution were added to each well and the plates were incubated for exactly 2 h. The reaction was stopped by adding 25 μL 10% SDS to each well. The absorbance was measured by a microplate reader at 490 nm and 650 nm (reference wavelength). IC50 was calculated using GraphPad Prism 5.0.

`Cn1cc(-c2cc(-c3ccc(N4CCN(Cc5cc(F)ccc5F)CC4)nc3)n3c(C#N)cnc3c2)cn1` [Example 8, 5-(6-(4-(2,5-difluorobenzyl)piperazin-1-yl)pyridin-3-yl)-7-(1-methyl-1H-pyrazol-4-yl)imidazo[1,2-a]pyridine-3-carbonitrile] returned an IC50 of 39 nM.
Molecule `Cc1cccnc1CN1CCN(c2ccc(-c3cc(-c4cnn(C)c4)cc4ncc(C#N)n34)cn2)CC1` [Example 9, 7-(1-methyl-1H-pyrazol-4-yl)-5-(6-(4-((3-methylpyridin-2-yl)methyl)pi-perazin-1-yl)pyridin-3-yl)imidazo[1,2-a]pyridine-3-carbonitrile] gave an IC50 of 79 nM.
Take `C[C@@H](C(=O)N1CCN(c2ccc(-c3cc(-c4cnn(C)c4)cc4ncc(C#N)n34)cn2)CC1)c1ccccc1` [Example 10, (R)-7-(1-methyl-1H-pyrazol-4-yl)-5-(6-(4-(2-phenylpropanoyl)piperazin-1-yl)pyridin-3-yl)imidazo[1,2-a]pyri-dine-3-carbonitrile]: the IC50 was found to be 6 nM.
As for `COc1ccc(CN2CCN(c3ccc(-c4nc(-c5cnn(C)c5)cc5ncc(C#N)n45)cn3)CC2)nc1` [Example 24, 5-(6-(4-((5-methoxypyridin-2-yl)meth-yl)piperazin-1-yl)pyridin-3-yl)-7-(1-methyl-1H-pyrazol-4-yl)imidazo[1,2-c]pyrimidine-3-carbonitrile], the IC50 was determined as 86 nM.
`Cn1cc(-c2cc3ncc(C#N)n3c(-c3ccc(N4CCN(Cc5ccccc5)CC4)nc3)n2)cn1` [Example 25, 5-(6-(4-benzylpiperazin-1-yl)pyridin-3-yl)-7-(1-methyl-1H-pyrazol-4-yl) imidazo[1,2-c]pyrimidine-3-carbonitrile] gave a 50% inhibitory concentration (IC50) of 79 nM.
The figure for `CN(C)c1ccc(CN2CCN(c3ccc(-c4cc(-c5cnn(C)c5)cc5ncc(C#N)n45)cn3)CC2)cn1` [Example 28, 5-(6-(4-((6-(dimethylamino)pyridin-3-yl)methyl)piperazin-1-yl)pyridin-3-yl)-7-(1-methyl-1H-pyrazol-4-yl)im-idazo[1,2-a]pyridine-3-carbonitrile] is 79 nM.
`COc1ccccc1CN1CCN(c2ccc(-c3cc(-c4cnn(C)c4)cc4ncc(C#N)n34)cn2)CC1` [Example 29, 5-(6-(4-(2-methoxybenzyl)piperazin-1-yl)pyridin-3-yl)-7-(1-methyl-1H-pyrazol-4-yl)imidazo[1,2-a]pyridine-3-carbonitrile] came in with a half-maximal inhibitory concentration (IC50) of 84 nM.
In turn, `Cn1cc(-c2cc(-c3ccc(N4CCN(Cc5c(F)cccc5F)CC4)nc3)n3c(C#N)cnc3c2)cn1` [Example 35, 5-(6-(4-(2,6-difluorobenzyl)piperazin-1-yl)pyridin-3-yl)-7-(1-methyl-1H-pyrazol-4-yl)imidazo[1,2-a]pyridine-3-carbonitrile] came in with an IC50 of 1 nM.
The figure for `Cn1cc(-c2cc(-c3ccc(N4CCN(Cc5ccc6ncn(C)c6c5)CC4)nc3)n3c(C#N)cnc3c2)cn1` [Example 36, 5-(6-(4-((1-methyl-1H-benzo[d]imid-azol-6-yl)methyl)piperazin-1-yl)pyri-din-3-yl)-7-(1-methyl-1H-pyrazol-4-yl)imidazo[1,2-a]pyridine-3-carboni-trile] is 62 nM.
In the case of `CN(C)[C@@H](C(=O)N1CCN(c2ccc(-c3cc(-c4cnn(C)c4)cc4ncc(C#N)n34)cn2)CC1)c1cccc(Cl)c1` [Example 39, (R)-5-(6-(4-(2-(3-chlorophenyl)-2-(dimethylamino)acetyl)piperazin-1-yl)pyridin-3-yl)-7-(1-methyl-1H-pyrazol-4-yl)imidazo[1,2-a]pyridine-3-car-bonitrile], the IC50 worked out at 39 nM.
In the case of `CN(C)C(C(=O)N1CCN(c2ccc(-c3cc(-c4cnn(C)c4)cc4ncc(C#N)n34)cn2)CC1)c1ccc(F)c(Cl)c1` (stereo not shown) [Example 41, 5-(6-(4-(2-(3-chloro-4-fluorophenyl)-2-(dimethylamino)acetyl)piperazin-1-yl)pyridin-3-yl)-7-(1-methyl-1H-pyrazol-4-yl)imidazo[1,2-a]pyridine-3-carbonitrile], the IC50 is 12 nM.
To `Cc1ccc(CC(=O)N2CCN(c3ccc(-c4cc(-c5cnn(C)c5)cc5ncc(C#N)n45)cn3)CC2)nc1` [Example 47, 7-(1-methyl-1H-pyrazol-4-yl)-5-(6-(4-(2-(5-methylpyridin-2-yl)acetyl)pi-perazin-1-yl)pyridin-3-yl)imidazo[1,2-a]pyridine-3-carbonitrile] belongs 88 nM; to `COc1ccc(CN2C3CC2CN(c2ccc(-c4cc(OCCN=S(C)(C)=O)cc5ncc(C#N)n45)cn2)C3)cn1` [Example 58, 7-(2-((Dimethyl(oxo)-λ^6-sulfanylidene)amino)ethoxy)-5-(6-(6-((6-methoxypyridin-3-yl)methyl)-3,6-diazabicyclo[3.1.1]heptan-3-yl)pyridin-3-yl)imidazo[1,2-a]pyridine-3-carbonitrile], 120 nM.
Consider `[2H]C([2H])([2H])Oc1ccc(OC2CCN(c3ccc(-c4cc(OCC(C)(C)O)cc5ncc(C#N)n45)cn3)CC2)cn1` [Example 61, 7-(2-Hydroxy-2-methylpropoxy)-5-(6-(4-((6-(methoxy-d3)pyridin-3-yl)oxy)piperidin-1-yl)pyridin-3-yl)imidazo[1,2-a]pyridine-3-carbonitrile], for which half-maximal inhibition (IC50) was put at 15 nM.
`COc1ccc(OC2CCN(c3ccc(-c4cc(OCCN=S(C)(C)=O)cc5ncc(C#N)n45)cn3)CC2)cn1` [Example 70, 7-(2-((dimethyl(oxo)-λ^6-sulfanylidene)ami-no)ethoxy)-5-(6-(4-((6-methoxypyridin-3-yl)oxy)piperidin-1-yl)pyridin-3-yl)imid-azo[1,2-a]pyridine-3-carbonitrile] had a 50% inhibitory concentration (IC50) of 71 nM.
In the case of `Cc1ccc(OC2CCN(c3ccc(-c4cc(OCC(C)(C)O)cc5ncc(C#N)n45)cn3)CC2)cn1` [Example 71, 7-(2-hydroxy-2-methylpropoxy)-5-(6-(4-((6-methylpyridin-3-yl)oxy)piperidin-1-yl)pyridin-3-yl)imidazo[1,2-a]pyridine-3-carbonitrile], the half-maximal inhibitory concentration (IC50) came out at 22 nM.
To `CC(C)(O)COc1cc(-c2ccc(N3CCC(Oc4ccc(C5CC5)nc4)CC3)nc2)n2c(C#N)cnc2c1` [Example 72, 5-(6-(4-((6-cyclopropylpyridin-3-yl)oxy)piperidin-1-yl)pyridin-3-yl)-7-(2-hydroxy-2-methylpropoxy)imidazo[1,2-a]pyridine-3-carbonitrile] belongs 17 nM; to `CCc1ccc(OC2CCN(c3ccc(-c4cc(OCC(C)(C)O)cc5ncc(C#N)n45)cn3)CC2)cn1` [Example 73, 5-(6-(4-((6-ethylpyridin-3-yl)oxy)piperidin-1-yl)pyridin-3-yl)-7-(2-hydroxy-2-meth-ylpropoxy)imidazo[1,2-a]pyridine-3-car-bonitrile], 1 nM.
The figure for `Cc1ccc(OC2CCN(c3ccc(-c4cc(OCC5(O)CC5)cc5ncc(C#N)n45)cn3)CC2)cn1` [Example 74, 7-((1-hydroxycyclopropyl)methoxy)-5-(6-(4-((6-methylpyridin-3-yl)oxy)piperidin-1-yl)pyridin-3-yl)imidazo[1,2-a]pyridine-3-carbonitrile] is 23 nM; for `CCc1ccc(OC2CCN(c3ccc(-c4cc(OCC5(O)CC5)cc5ncc(C#N)n45)cn3)CC2)cn1` [Example 75, 5-(6-(4-((6-ethylpyridin-3-yl)oxy)piperidin-1-yl)pyridin-3-yl)-7-((1-hydroxycyclo-propyl)methoxy)imidazo[1,2-a]pyridine-3-carbonitrile] it is 1 nM; for `N#Cc1cnc2cc(OCC3(O)CC3)cc(-c3ccc(N4CCC(Oc5ccc(C6CC6)nc5)CC4)nc3)n12` [Example 76, 5-(6-(4-((6-cyclopropylpyridin-3-yl)oxy)piperidin-1-yl)pyridin-3-yl)-7-((1-hydroxy-cyclopropyl)methoxy)imidazo[1,2-a]pyr-idine-3-carbonitrile] it is 5 nM.
As for `CC(C)(O)COc1cc(-c2ccc(N3CCC(Oc4ccc(C(F)F)nc4)CC3)nc2)n2c(C#N)cnc2c1` [Example 77, 5-(6-(4-((6-(difluoromethyl)pyridin-3-yl)oxy)piperidin-1-yl)pyridin-3-yl)-7-(2-hy-droxy-2-methylpropoxy)imidazo[1,2-a]pyr-idine-3-carbonitrile], 48 nM corresponded to half-maximal inhibition (IC50).
In the case of `N#Cc1cnc2cc(OCC3(O)CC3)cc(-c3ccc(N4CCC(Oc5ccc(C(F)F)nc5)CC4)nc3)n12` [Example 78, 5-(6-(4-((6-(difluoromethyl)pyridin-3-yl)oxy)piperidin-1-yl)pyridin-3-yl)-7-((1-hy-droxycyclopropyl)methoxy)imidazo[1,2-a]pyridine-3-carbonitrile], the IC50 stood at 13 nM.
The figure for `CCOc1ccc(OC2CCN(c3ccc(-c4cc(OCC5(O)CC5)cc5ncc(C#N)n45)cn3)CC2)cn1` [Example 79, 5-(6-(4-((6-ethoxypyridin-3-yl)oxy)piperi-din-1-yl)pyridin-3-yl)-7-((1-hydroxycyclo-propyl)methoxy)imidazo[1,2-a]pyridine-3-carbonitrile] is 1 nM.
To `C#Cc1ccc(OC2CCN(c3ccc(-c4cc(OCC(C)(C)O)cc5ncc(C#N)n45)cn3)CC2)cn1` [Example 80, 5-(6-(4-((6-ethynylpyridin-3-yl)oxy)piper-idin-1-yl)pyridin-3-yl)-7-(2-hydroxy-2-methylpropoxy)imidazo[1,2-a]pyridine-3-carbonitrile] belongs 7 nM.

The term IC50 denotes the point on the concentration scale where inhibition reaches its midpoint. A lower IC50 goes with greater potency.
